{"source": "patent US20070191485A1", "about": "“Active oxygen scavenging composition including citrulline” (Nara Institute of Science and Technology, priority 2001, published 2007)", "key": {"[1]": {"tested_on": "malate dehydrogenase (MDH)", "test": "Effect of solutes on enzymatic activity of malate dehydrogenase (MDH)", "type": "biochemical, wild water-melon (Citrullus lanatus sp. No. 101117-1)", "method": "(§1) Safety of citrulline was compared with that of arginine, by investigation of inhibition on enzymatic activities of malate dehydrogenase (MDH) and lactate dehydrogenase (LDH), caused by high concentration citrulline and arginine. Chloride ion was used as ion pair for arginine, and assay on potassium chloride was performed to evaluate effect of the chloride ion as well.\n(§2) Leaf tissue derived from wild water-melon (Citrullus lanatus sp. No. 101117-1) was fractured under cooling with liquid nitrogen. Then after extraction with extraction buffer (50 mM Tris-HCl, pH=7.5, 5 mM DTT, 5 μg/ml BSA, 15% glycerol), supernatant obtained by centrifugation at 10,000 g for 5 minutes was used as crude extraction fraction of malate dehydrogenase (MDH). Pig purified authentic enzyme available from Oriental Co., was used as lactate dehydrogenase (LDH). MDH reaction solution contained 100 mM Tris-HCl pH 7.5, 150 μM NADH, 250 μM oxaloacetic acid and 10 μL of enzyme solution, and the total volume of the solution was adjusted to 1 mL. As LDH reaction solution, a mixture containing 10 mM Tris-HCl pH 7.5, 150 μM NADH, 250 μM lithium pyruvate and 10 μL of enzyme solution was used. When effect of various kinds of solutes, e.g. citrulline, on enzymatic activity is to be investigated, pH of the solution was re-adjusted to 7.5 by using KOH after addition of the solute at various concentration. The reaction started at 25° C. by addition of substrate, then initial rate was determined by alteration of absorbance at 340 nm, accompanied by decrease of NADH. Incidentally, in FIG. 2 and FIG. 3, white columns indicate the results of citrulline, black columns indicate those of arginine chloride, and hatched columns indicate those of potassium chloride, respectively."}, "[2]": {"tested_on": "lactate dehydrogenase (LDH)", "test": "Effect of solutes on enzymatic activity of lactate dehydrogenase (LDH)", "type": "biochemical, Pig", "method": "as §1, §2"}, "[3]": {"test": "Kinetic analysis of reaction with hydroxyl radical (competition with hydroxylation of salicylic acid)", "settings": "for Reaction rate constant (with hydroxyl radical): calculated from competitive reaction theory, mannitol as standard", "method": "To evaluate ability of citrulline as an active oxygen scavenger, reaction rate between citrulline and hydroxyl radical was determined. Generation of hydroxyl radical was performed by a system using ascorbic acid and hydrogen peroxide. Here hydroxylation of salicylic acid was used as an index for radical generation. The reaction mixture contained 40 mM of K-Pi buffer, pH 7.4, 0.26 mM of ascorbate, 0.15 mM of FeEDTA, 0.6 mM of H2O2, 2 mM of salicylate and various compatible solutes, then the total volume was adjusted to 400 μL. After reaction at 25° C. for 90 minutes, reaction product of salicylic acid and a hydroxyl radical (namely, 2,3-dihydroxybenzoic acid) was altered to its chromogenic derivative. Then it was determined by absorbance at 510 nm. As the result, the secondary reaction rate constant on reaction of citrulline and hydroxyl radical was calculated from competitive reaction theory. As the standard reaction rate constant, a reported value of mannitol (1.7×10^9 M^−1 s^−1) was used.\nThe secondary reaction rate constants between the solutes and hydroxyl radical were roughly calculated."}, "[4]": {"tested_on": "pyruvate kinase (PK)", "test": "Protection of pyruvate kinase (PK) activity from injury by hydroxyl radical", "type": "biochemical, porcine", "settings": "after 120 minutes (about 36% without citrulline)", "method": "The ability of citrulline to protect bio-molecules, such as enzymes or nucleic acids, from hydroxyl radical was investigated. That is, investigation on the effect of hydroxyl radical exerted to enzymatic activity of pyruvate kinase (PK) was performed. Here, hydroxyl radical was generated by a system using ascorbic acid and hydrogen peroxide. The inactivation mixture contained 100 mM of Tris-HCl buffer (pH 7.4), 2.5 U of porcine PK (available from Oriental CO.), 0.2 mM of ascorbate, 0.15 mM of FeEDTA, 0.6 mM of H2O2 and citrulline at various concentrations. Then the total volume was adjusted to 250 μL. The inactivation reaction started by adding H2O2 at 25° C. and 10 μL of aliquot was sampled at constant intervals. Then residual activity of the enzyme was determined. The reaction mixture for measurement of enzymatic activity contained 80 mM of Tris-HCl buffer (pH 7.4), 7.5 mM of MgCl2, 75 mM of KCl, 3.75 mM of ADP, 0.15 mM of NADH, 10 U of porcine LDH, 0.8 mM of PEP and 10 μL of inactivated PK enzyme. The reaction started by addition of substrate at 25° C., and initial rate was measured by alteration of absorbance at 340 nm, accompanied by increase or decrease of NADH. In FIG. 5, ∘ indicates absence of citrulline, ● indicates presence of 200 mM citrulline, ▴ indicates presence of 400 mM citrulline, and ▪ indicates without generation of active oxygen, respectively."}, "[5]": {"tested_on": "circular plasmid DNA", "test": "Protection of circular plasmid DNA from injury by hydroxyl radical (agarose gel electrophoresis)", "settings": "after 2 hours", "method": "Moreover, the effect of citrulline to prevent DNA from active oxygen injury was investigated. A solution containing 200 ng of circular plasmid DNA and various concentrations of citrulline was prepared and hydroxyl radical was generated by addition of 3 mM of H2O2 and 0.01 mM of FeEDTA. Then injury exerted on DNA was evaluated by agarose gel electrophoresis after 2 hours. The results were shown in FIG. 6 and lanes 1 to 7 indicated following experimental systems, respectively. In FIG. 6, lane 1 indicates molecular marker for electrophoresis. Lane 2 indicates a result untreated plasmid DNA. Lane 3 indicates a result from an experimental system wherein trivalent iron is added solely. Lane 4 indicates a result from an experimental system wherein hydroxyl radical was generated by addition of trivalent iron and hydrogen peroxide. Lane 5 indicates a result from an experimental system wherein 50 mM of citrulline was added to the system of lane 4 (the system with generation of active oxygen) to eliminate the generated active oxygen. Lane 6 indicates a result from an experimental system wherein 100 mM of citrulline was added to the system of lane 4 (the system with generation of active oxygen) to eliminate the generated active oxygen. Lane 7 indicates a result from an experimental system wherein 200 mM of citrulline was added to the system of lane 4 (the system with generation of active oxygen) to eliminate the generated active oxygen."}, "[6]": {"settings": "reported value used as the standard for calculation, cited from earlier work"}}, "note": "Like-named read-outs stand apart in the source and are kept apart here.", "data": [{"compound": "NC(=O)NCCC[C@H](N)C(=O)O", "note": "[Citrulline, citrulline]", "values": [{"measurement": "inhibitory effect on malate dehydrogenase (MDH)", "setting": "[1]; high concentration of solute", "result": "did not cause any inhibitory effect"}, {"measurement": "MDH activity, % of control", "setting": "[1]; in the presence of 200 mM", "result": "about 109%"}, {"measurement": "inhibitory effect on lactate dehydrogenase (LDH) activity", "setting": "[2]; high concentration of solute", "result": "not significant"}, {"measurement": "decrease of LDH enzymatic activity", "setting": "[2]; in the presence of 600 mM", "result": "about 10%"}, {"measurement": "Reaction rate constant (with hydroxyl radical)", "setting": "[3]", "result": "2.9e+09", "unit": "M⁻¹ s⁻¹"}, {"measurement": "potency as a scavenger of hydroxyl radical (FIG. 4)", "setting": "[3]; compared with glycinebetaine, proline, mannitol", "result": "most significant among the four compatible solutes"}, {"measurement": "calculated ID50 value (secondary reaction rate constant with hydroxyl radical)", "setting": "[3]; roughly calculated", "result": "about 3×10^9 M^−1 s^−1"}, {"measurement": "residual activity of PK, % of the initial activity", "setting": "[4]; 200 mM citrulline", "result": 61, "unit": "%"}, {"measurement": "residual activity of PK, % of the initial activity", "setting": "[4]; 400 mM citrulline", "result": 74, "unit": "%"}, {"measurement": "abscission of DNA", "setting": "[5]; 50 mM citrulline (Lane 5)", "result": "markedly reduced"}, {"measurement": "abscission of DNA", "setting": "[5]; 100 mM citrulline (Lane 6)", "result": "markedly reduced"}, {"measurement": "abscission of DNA", "setting": "[5]; 200 mM citrulline (Lane 7)", "result": "markedly reduced"}]}, {"compound": "C[N+](C)(C)CC(=O)O", "note": "[Glycinebetain, glycinebetaine, reference compound]", "values": [{"measurement": "Reaction rate constant (with hydroxyl radical)", "setting": "[3]", "result": "2.1e+07", "unit": "M⁻¹ s⁻¹"}]}, {"compound": "OC[C@@H](O)[C@@H](O)[C@H](O)[C@H](O)CO", "note": "[Mannitol, mannitol]", "values": [{"measurement": "Reaction rate constant (with hydroxyl radical), reported standard value", "setting": "[6]", "result": "1.7e+09", "unit": "M⁻¹ s⁻¹"}, {"measurement": "Reaction rate constant (with hydroxyl radical), reported standard value", "setting": "[6]; listed as mannitol", "result": "1.7e+09", "unit": "M⁻¹ s⁻¹"}]}, {"compound": "O=C(O)[C@@H]1CCCN1", "note": "[Proline, proline, reference compound]", "values": [{"measurement": "Reaction rate constant (with hydroxyl radical)", "setting": "[3]", "result": "3e+08", "unit": "M⁻¹ s⁻¹"}]}, {"compound": "O=C(O)c1ccccc1O", "note": "[Salicylic acid, salicylic acid, reference compound]", "values": [{"measurement": "Reaction rate constant (with hydroxyl radical)", "setting": "[3]", "result": "6.3e+09", "unit": "M⁻¹ s⁻¹"}]}, {"compound": "[Cl-].[K+]", "note": "[potassium chloride, reference compound]", "values": [{"measurement": "MDH enzymatic activity, % of the control activity", "setting": "[1]; in the presence of 600 mM", "result": 21, "unit": "%"}, {"measurement": "LDH enzymatic activity, % of the control activity", "setting": "[2]; in the presence of 600 mM", "result": 64, "unit": "%"}]}]}
